Results taken from BindingDB's records for doi:10.1021/jm00378a002 (1985).

Target: uridine-cytidine kinase (Mus musculus)
Assay: Binding affinity to uridine kinase from L1210. was determined from the dixon plot

O=c1ccn([C@@H]2C=C(CO)[C@@H](O)[C@H]2O)c(=O)[nH]1 [1-(4,5-Dihydroxy-3-hydroxymethyl-cyclopent-2-enyl)-4-hydroxy-1H-pyrimidin-2-one]
Ki: 230 µM
